Results published in patent US20260317320A1, “C5AR1 ANTAGONISTS AND USES THEREOF” (Vanqua Bio, Inc., priority 2022, published 2026).
Blank lines part the entries; values can stand above or below the compound they belong to.

Columns and labels:
[1] = molecular target: T1, complement C5a receptor 1 (C5aR1) (Homo sapiens, UniProt P21730); experiment: β-arrestin recruitment via C5aR1 activation in live CHO-K1 cells (PathHunter), agonist mode; format: cell-based
T1 construct: β-galactosidase fragment (PathHunter enzyme complementation); host or cells: CHO-K1 (PathHunter CHO-K1 C5aR1 β-arrestin cell line)
T1 sequence (P21730 1-350): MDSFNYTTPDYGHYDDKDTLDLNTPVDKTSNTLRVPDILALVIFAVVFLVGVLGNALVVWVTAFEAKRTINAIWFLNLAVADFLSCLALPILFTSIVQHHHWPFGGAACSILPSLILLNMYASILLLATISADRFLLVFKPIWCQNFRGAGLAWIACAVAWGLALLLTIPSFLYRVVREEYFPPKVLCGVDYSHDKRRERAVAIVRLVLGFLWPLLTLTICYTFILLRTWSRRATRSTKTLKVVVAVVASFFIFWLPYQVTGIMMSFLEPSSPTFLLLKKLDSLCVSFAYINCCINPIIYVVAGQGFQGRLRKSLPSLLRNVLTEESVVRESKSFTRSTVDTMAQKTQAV
Procedure, shortened: (§1)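 β-arrestin recruitment to C5aR1 in CHO-K1 cells is detected by enzyme-fragment complementation. Antagonism is measured against recombinant hC5a at its EC90; agonism is measured with compound alone. Potencies are grouped into IC50 categories.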

[2] = molecular target: T1, complement C5a receptor 1 (C5aR1); experiment: β-arrestin recruitment via C5aR1 activation in live CHO-K1 cells (PathHunter), antagonist mode; format: cell-based; settings: antagonist mode; recombinant hC5a (EC90) as competing natural agonist; live CHO-K1 cells; read-out: [Antagonist] B-arrestin2 recruitment: Average IC50
Procedure, shortened: as §1

Structure (SMILES): Cc1cccc(F)c1N1CCC(c2cc3nccnc3n(Cc3cccnc3C(F)(F)F)c2=O)CC1 [compound 13, 7-(1-(2-Fluoro-6-methylphenyl)piperidin-4-yl)-5-((2-(trifluoromethyl)pyridin-3-yl)methyl)pyrido[2,3-b]pyrazin-6(5H)-one]
[Agonist] B-arrestin2 recruitment: Average EC50 (nM) [1]: Non-Active | IC50 [2]: < 500 nM

Structure (SMILES): Cc1cccc(F)c1N1CCC(c2cc3nccnc3n(Cc3ccc(C(F)(F)F)nc3)c2=O)CC1 [compound 14, 7-(1-(2-Fluoro-6-methylphenyl)piperidin-4-yl)-5-((6-(trifluoromethyl)pyridin-3-yl)methyl)pyrido[2,3-b]pyrazin-6(5H)-one]
[Agonist] B-arrestin2 recruitment: Average EC50 (nM) [1]: Non-Active | IC50 [2]: > 100000 nM

Structure (SMILES): Cc1cccc(F)c1N1CCC(c2cc3nccnc3n(Cc3ccc(C(F)(F)F)cn3)c2=O)CC1 [compound 15, 7-(1-(2-Fluoro-6-methylphenyl)piperidin-4-yl)-5-((5-(trifluoromethyl)pyridin-2-yl)methyl)pyrido[2,3-b]pyrazin-6(5H)-one]
[Agonist] B-arrestin2 recruitment: Average EC50 (nM) [1]: Non-Active | IC50 [2]: > 100000 nM

Structure (SMILES): Cc1cccc(F)c1N1CCC(c2cc3nccnc3n(Cc3cnccc3C(F)(F)F)c2=O)CC1 [compound 16, 7-(1-(2-Fluoro-6-methylphenyl)piperidin-4-yl)-5-((4-(trifluoromethyl)pyridin-3-yl)methyl) pyrido[2,3-b]pyrazin-6(5H)-one]
[Agonist] B-arrestin2 recruitment: Average EC50 (nM) [1]: Non-Active | IC50 [2]: < 500 nM

Structure (SMILES): O=c1c(C2CCN(c3cccnc3C(F)(F)F)CC2)cc2nccnc2n1Cc1ccccc1F [compound 18, 5-(2-Fluorobenzyl)-7-(1-(2-(trifluoromethyl)pyridin-3-yl)piperidin-4-yl)pyrido[2,3-b]pyrazin-6(5H)-one]
[Agonist] B-arrestin2 recruitment: Average EC50 (nM) [1]: Non-Active | IC50 [2]: > 100000 nM

Structure (SMILES): Cc1cccc(F)c1N1CCC(c2cc3nccnc3n(Cc3nccnc3C)c2=O)CC1 [compound 20, 7-(1-(2-Fluoro-6-methylphenyl)piperidin-4-yl)-5-((3-methylpyrazin-2-yl)methyl)pyrido[2,3-b]pyrazin-6(5H)-one]
[Agonist] B-arrestin2 recruitment: Average EC50 (nM) [1]: Non-Active | IC50 [2]: 500 to 5000 nM

Structure (SMILES): Cc1cccc(F)c1N1CCC(c2cc3nccnc3n(Cc3nccnc3C(F)(F)F)c2=O)C1 (stereo not shown) [compound 23, 7-(1-(2-Fluoro-6-methylphenyl)pyrrolidin-3-yl)-5-((3-(trifluoromethyl)pyrazin-2-yl)methyl) pyrido[2,3-b]pyrazin-6(5H)-one]
[Agonist] B-arrestin2 recruitment: Average EC50 (nM) [1]: Non-Active | IC50 [2]: 500 to 5000 nM

Second part, the compound after the results:

[Agonist] B-arrestin2 recruitment: Average EC50 (nM) [1]: Non-Active | IC50 [2]: < 500 nM
Structure (SMILES): Cc1cccc(F)c1N1CCC(c2cc3nccnc3n(Cc3nccnc3C(F)(F)F)c2=O)CC1 [compound 12, 7-(1-(2-Fluoro-6-methylphenyl)piperidin-4-yl)-5-((3-(trifluoromethyl)pyrazin-2-yl)methyl)pyrido[2,3-b]pyrazin-6(5H)-one]

[Agonist] B-arrestin2 recruitment: Average EC50 (nM) [1]: Non-Active | IC50 [2]: 500 to 5000 nM
Structure (SMILES): Cc1cccc(F)c1N1CCC(c2cc3nccnc3n(Cc3ccncc3C(F)(F)F)c2=O)CC1 [compound 17, 7-(1-(2-Fluoro-6-methylphenyl)piperidin-4-yl)-5-((3-(trifluoromethyl)pyridin-4-yl)methyl) pyrido[2,3-b]pyrazin-6(5H)-one]

[Agonist] B-arrestin2 recruitment: Average EC50 (nM) [1]: Non-Active | IC50 [2]: < 500 nM
Structure (SMILES): Cc1cccc(F)c1N1CCC(c2cc3nccnc3n(Cc3ncccc3C(F)(F)F)c2=O)CC1 [compound 21, 7-(1-(2-Fluoro-6-methylphenyl)piperidin-4-yl)-5-((3-(trifluoromethyl)pyridin-2-yl)methyl)pyrido[2,3-b]pyrazin-6(5H)-one]

[Agonist] B-arrestin2 recruitment: Average EC50 (nM) [1]: Non-Active | IC50 [2]: 500 to 5000 nM
Structure (SMILES): Cc1cccc(F)c1N1CCC(c2c(C)c3nccnc3n(Cc3nccnc3C(F)(F)F)c2=O)CC1 [compound 22, 7-(1-(2-Fluoro-6-methylphenyl)piperidin-4-yl)-8-methyl-5-((3-(trifluoromethyl)pyrazin-2-yl)methyl)pyrido[2,3-b]pyrazin-6(5H)-one]
